Laboratory results from patent US12378231B2, “Small molecules as monoacylglycerol lipase (MAGL) inhibitors, compositions and use thereof” (APOGEE PHARMACEUTICALS, INC., priority 2023, dated 2025).
Read-outs that look alike come from different tables or passages of the source.

Assays:
[1] = biological target: human recombinant FAAH (Homo sapiens (Human), UniProt O00519); assay: In vitro inhibition of human recombinant FAAH activity (Cayman FAAH inhibitor screening kit, AMC arachidonoyl amide hydrolysis); type: biochemical
human recombinant FAAH, sequence (O00519 whole entry): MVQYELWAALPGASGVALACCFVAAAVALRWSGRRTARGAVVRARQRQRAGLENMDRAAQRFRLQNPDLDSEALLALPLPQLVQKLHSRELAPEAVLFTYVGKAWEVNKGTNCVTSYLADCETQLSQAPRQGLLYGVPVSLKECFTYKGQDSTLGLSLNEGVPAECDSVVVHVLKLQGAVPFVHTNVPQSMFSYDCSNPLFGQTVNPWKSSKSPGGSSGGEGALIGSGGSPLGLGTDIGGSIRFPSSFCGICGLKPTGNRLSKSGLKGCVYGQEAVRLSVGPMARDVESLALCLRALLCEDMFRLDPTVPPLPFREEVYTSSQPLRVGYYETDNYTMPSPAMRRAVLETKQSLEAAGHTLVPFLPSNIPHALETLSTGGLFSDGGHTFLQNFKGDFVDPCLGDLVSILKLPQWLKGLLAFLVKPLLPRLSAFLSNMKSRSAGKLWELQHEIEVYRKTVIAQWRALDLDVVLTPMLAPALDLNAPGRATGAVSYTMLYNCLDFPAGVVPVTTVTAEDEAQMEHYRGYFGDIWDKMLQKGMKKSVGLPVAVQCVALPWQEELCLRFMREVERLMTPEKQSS
Description: In brief, FAAH hydrolyzes AMC arachidonoyl amide resulting in the release of the fluorescent product, while the inhibitor will inhibit the FAAH activity and thus reduce the fluorescent signal.

[2] = biological target: human recombinant MAGL (Homo sapiens (Human), UniProt Q99685); assay: In vitro inhibition of human recombinant MAGL activity (Cayman inhibitor screening kit, 4-nitrophenylacetate hydrolysis); type: biochemical
human recombinant MAGL, sequence (Q99685 whole entry): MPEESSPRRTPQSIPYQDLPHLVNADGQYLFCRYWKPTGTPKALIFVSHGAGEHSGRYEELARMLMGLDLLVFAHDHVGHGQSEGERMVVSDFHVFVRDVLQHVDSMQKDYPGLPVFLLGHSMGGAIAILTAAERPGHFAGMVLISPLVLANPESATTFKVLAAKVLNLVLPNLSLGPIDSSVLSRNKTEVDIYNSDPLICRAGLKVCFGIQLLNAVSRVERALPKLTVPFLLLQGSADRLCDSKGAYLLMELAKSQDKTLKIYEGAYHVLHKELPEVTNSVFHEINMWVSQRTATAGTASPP
Description: The inhibitory effect of the synthetic chemicals on activity of human recombinant MAGL was studied using commercial inhibitor screening kit (Cayman Chemical). […] The absorbance of the yellow product can be analyzed using the plate reader. […]

[3] = human recombinant MAGL, read-out: Inhibition on MAGL activity (IC50)

Row | SMILES | IC50 [1] | IC50 [2, 3] | IC50 [2]
1 | O=C(N1CCN(C(c2ccc3c(c2)COCO3)c2ccc3c(c2)COCO3)CC1)n1nnc2ccccc21 [Example 8, (1H-benzo[d][1,2,3]triazol-1-yl)(4-(bis(4H-benzo[d][1,3]dioxin-6-yl)methyl)piperazin-1-yl)methanone] | > 20000 nM | 1 to 20 nM | –
2 | O=C(N1CCN(C(c2ccc3c(c2)COCO3)c2ccc3c(c2)COCO3)CC1)n1cncn1 [Example 10, (4-(bis(4H-benzo[d][1,3]dioxin-6-yl)methyl)piperazin-1-yl)(1H-1,2,4-triazol-1-yl)methanone] | 1000 to 10000 nM | 10 to 100 nM | –
3 | O=C(Oc1ccc2c(c1)CCC2)N1CCN(C(c2ccc3c(c2)COCO3)c2ccc3c(c2)COCO3)CC1 [Example 12, 2,3-dihydro-1H-inden-5-yl 4-(bis(4H-benzo[d][1,3]dioxin-6-yl)methyl)piperazine-1-carboxylate] | > 10000 nM | > 100 nM | –
4 | O=C(Oc1ccc([N+](=O)[O-])cc1[N+](=O)[O-])N1CCN(C(c2ccc3c(c2)COCO3)c2ccc3c(c2)COCO3)CC1 [Example 13, 2,4-dinitrophenyl 4-(bis(4H-benzo[d][1,3]dioxin-6-yl)methyl)piperazine-1-carboxylate] | > 10000 nM | > 100 nM | –
5 | COc1ccc(OC(=O)N2CCN(C(c3ccc4c(c3)COCO4)c3ccc4c(c3)COCO4)CC2)cc1 [Example 14, 4-methoxyphenyl 4-(bis(4H-benzo[d][1,3]dioxin-6-yl)methyl)piperazine-1-carboxylate] | > 50000 nM | > 100 nM | –
6 | CCC(CC)OC(=O)N1CCN(C(c2ccc3c(c2)COCO3)c2ccc3c(c2)COCO3)CC1 [Example 15, pentan-3-yl 4-(bis(4H-benzo[d][1,3]dioxin-6-yl)methyl)piperazine-1-carboxylate] | > 50000 nM | > 100 nM | –
7 | CCN(CC)C(=O)N1CCN(C(c2ccc3c(c2)COCO3)c2ccc3c(c2)COCO3)CC1 [Example 18, 4-(bis(4H-benzo[d][1,3]dioxin-6-yl)methyl)-N,N-diethylpiperazine-1-carboxamide] | > 50000 nM | > 100 nM | –
8 | O=C(Oc1ccc([N+](=O)[O-])cc1F)N1CCN(C(c2ccc3c(c2)COCO3)c2ccc3c(c2)COCO3)CC1 [Example 19, 2-fluoro-4-nitrophenyl 4-(bis(4H-benzo[d][1,3]dioxin-6-yl)methyl)piperazine-1-carboxylate] | > 50000 nM | > 100 nM | –
9 | O=C(Oc1ccccn1)N1CCN(C(c2ccc3c(c2)COCO3)c2ccc3c(c2)COCO3)CC1 [Example 20, pyridin-2-yl 4-(bis(4H-benzo[d][1,3]dioxin-6-yl)methyl)piperazine-1-carboxylate] | > 50000 nM | > 100 nM | –
10 | O=C(On1nnc2ccc(C(F)(F)F)cc21)N1CCN(C(c2ccc3c(c2)COCO3)c2ccc3c(c2)COCO3)CC1 [Example 22, 6-(trifluoromethyl)-1H-benzo[d][1,2,3]triazol-1-yl 4-(bis(4H-benzo[d][1,3]dioxin-6-yl)methyl)piperazine-1-carboxylate] | > 50000 nM | > 100 nM | –
11 | O=C(On1nnc2cccnc21)N1CCN(C(c2ccc3c(c2)COCO3)c2ccc3c(c2)COCO3)CC1 [Example 23, 3H-[1,2,3]triazolo[4,5-b]pyridin-3-yl 4-(bis(4H-benzo[d][1,3]dioxin-6-yl)methyl)piperazine-1-carboxylate] | > 10000 nM | > 100 nM | –
12 | O=C(On1nnc2ccccc21)N1CCN(C(c2ccc3c(c2)COCO3)c2ccc3c(c2)COCO3)CC1 [Example 27, 1H-benzo[d][1,2,3]triazol-1-yl 4-(bis(4H-benzo[d][1,3]dioxin-6-yl)methyl)piperazine-1-carboxylate] | > 10000 nM | – | 10 to 100 nM
13 | O=C(Oc1c(F)c(F)c(F)c(F)c1F)N1CCN(C(c2ccc3c(c2)COCO3)c2ccc3c(c2)COCO3)CC1 [Example 29, pentafluorophenyl 4-(bis(4H-benzo[d][1,3]dioxin-6-yl)methyl)piperazine-1-carboxylate] | > 50000 nM | > 100 nM | –

Further lines, with some results ahead:

Row | IC50 [1] | IC50 [2, 3] | SMILES | IC50 [2]
14 | > 10000 nM | > 100 nM | O=C(N1CCN(C(c2ccc3c(c2)COCO3)c2ccc3c(c2)COCO3)CC1)n1ccnc1 [Example 9, (4-(bis(4H-benzo[d][1,3]dioxin-6-yl)methyl)piperazin-1-yl)(1H-imidazol-1-yl)methanone] | –
15 | > 50000 nM | > 100 nM | CCN(C(=O)N1CCN(C(c2ccc3c(c2)COCO3)c2ccc3c(c2)COCO3)CC1)C(C)C [Example 11, 4-(bis(4H-benzo[d][1,3]dioxin-6-yl)methyl)-N-ethyl-N-isopropylpiperazine-1-carboxamide] | –
16 | > 50000 nM | > 100 nM | O=C(OC1CCCCC1)N1CCN(C(c2ccc3c(c2)COCO3)c2ccc3c(c2)COCO3)CC1 [Example 16, cyclohexyl 4-(bis(4H-benzo[d][1,3]dioxin-6-yl)methyl)piperazine-1-carboxylate] | –
17 | > 50000 nM | > 100 nM | O=C(N1CCCCC1)N1CCN(C(c2ccc3c(c2)COCO3)c2ccc3c(c2)COCO3)CC1 [Example 17, (4-(bis(4H-benzo[d][1,3]dioxin-6-yl)methyl)piperazin-1-yl)(piperidin-1-yl)methanone] | –
18 | > 50000 nM | > 100 nM | S=C(N1CCN(C(c2ccc3c(c2)COCO3)c2ccc3c(c2)COCO3)CC1)n1cncn1 [Example 21, (4-(bis(4H-benzo[d][1,3]dioxin-6-yl)methyl)piperazin-1-yl)(1H-1,2,4-triazol-1-yl)methanethione] | –
19 | 1000 to 10000 nM | 1 to 10 nM | N#Cc1cnn(C(=O)N2CCN(C(c3ccc4c(c3)COCO4)c3ccc4c(c3)COCO4)CC2)c1 [Example 24, 1-(4-(bis(4H-benzo[d][1,3]dioxin-6-yl)methyl)piperazine-1-carbonyl)-1H-pyrazole-4-carbonitrile] | –
20 | > 10000 nM | 10 to 100 nM | O=C(N1CCN(C(c2ccc3c(c2)COCO3)c2ccc3c(c2)COCO3)CC1)n1cc(-c2ccccc2)nn1 [Example 25, (4-(bis(4H-benzo[d][1,3]dioxin-6-yl)methyl)piperazin-1-yl)(4-phenyl-1H-1,2,3-triazol-1-yl)methanone] | –
21 | 1000 to 10000 nM | 10 to 100 nM | O=C(N1CCN(C(c2ccc3c(c2)COCO3)c2ccc3c(c2)COCO3)CC1)n1ncc(-c2ccccc2)n1 [Example 26, (4-(bis(4H-benzo[d][1,3]dioxin-6-yl)methyl)piperazin-1-yl)(4-phenyl-2H-1,2,3-triazol-2-yl)methanone] | –
22 | > 20000 nM | 1 to 20 nM | Cc1ncn(C(=O)N2CCN(C(c3ccc4c(c3)COCO4)c3ccc4c(c3)COCO4)CC2)n1 [Example 28, (4-(bis(4H-benzo[d][1,3]dioxin-6-yl)methyl)piperazin-1-yl)(3-methyl-1H-1,2,4-triazol-1-yl)methanone] | –
23 | > 50000 nM | > 10000 nM | CC(C)=NOC(=O)N1CCN(C(c2ccc3c(c2)COCO3)c2ccc3c(c2)COCO3)CC1 [Example 30, propan-2-one O-(4-(bis(4H-benzo[d][1,3]dioxin-6-yl)methyl)piperazine-1-carbonyl) oxime] | –
24 | > 50000 nM | > 100 nM | O=C(N1CCN(C(c2ccc3c(c2)COCO3)c2ccc3c(c2)COCO3)CC1)n1ncc2ccccc21 [Example 35, (4-(bis(4H-benzo[d][1,3]dioxin-6-yl)methyl)piperazin-1-yl)(1H-indazol-1-yl)methanone] | –
